Measurements taken from patent US20130196903A1 (priority 2010, published 2013).

How the values were obtained:
[1] = tested on: dengue virus; conditions: dengue virus infectivity; cited from earlier work
[2] = tested on: wild-type (WT) strain of Measles Virus (MV); test: Antiviral activity against a wild-type strain of Measles Virus; type: cell-based
Experimental: The antiviral activity of a cholesterol-derivatized inhibitors derived from the sequence of Human Parainfluenza virus type 3 (HPIV3) was tested against a wild-type (WT) strain of Measles Virus (MV).

| Substance | antiviral activity [1] | fold more potent than the underivatized peptide [2] |
| --- | --- | --- |
| AWDFGSLGGVFTSIGKALHQVF (Dengue virus 2 (DV2)) [DV2^419-440] | very weak antiviral activity | – |
| Ac-VALDPIDISIVLNKAKSDLEESKEWIRRSNGKLDSIGSGSG-C(PEG4-Chol) (Ac-VALDPIDISIVLNKAKSDLEESKEWIRRSNGKLDSIGSGSG-{C(PEG4-cholesterol)}) | – | 5 fold |
| [(Ac-VALDPIDISIVLNKAKSDLEESKEWIRRSNGKLDSIGSGSG-C(Mal-PEG4)]2-Chol | – | 250 fold |
